# Data published in patent US12384789B2, “Compounds for treating Huntington's disease” (PTC Therapeutics, Inc., priority 2017, dated 2025).
# pIC50: −log10 of the molar value.
# Tested on: Endogenous Huntingtin Protein
# Test: Endogenous Huntingtin Protein Assay (Meso Scale Discovery ELISA-based electrochemiluminescence)
# Assay type: cell-based
# Settings: MSD electrochemiluminescence, Table 1
# Procedure, shortened: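 MSD electrochemiluminescence sandwich ELISA: MW1 (expanded polyQ) or MAB2166 capture antibody at 1 μg/mL, samples incubated overnight at 4° C. Detection with rabbit monoclonal #5656S then SULFO-TAG anti-rabbit antibody, each 0.25 μg/mL for 1 h at room temperature.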
row,Structure (SMILES),pIC50
1,"COc1cc(-c2cc(F)c3cc(C4CCNCC4)nnc3c2)nn2cc(C)nc12 [Compound 106, 5-fluoro-7-(8-methoxy-2-methylimidazo[1,2-b]pyridazin-6-yl)-3-(piperidin-4-yl)cinnoline]",≥ 7.00
2,"Cc1cn2nc(-c3cc(F)c4cc(C5CCNCC5)nnc4c3)cc(CO)c2n1 [Compound 107, {6-[5-fluoro-3-(piperidin-4-yl)cinnolin-7-yl]-2-methylimidazo[1,2-b]pyridazin-8-yl}methanol]",≥ 7.00
3,"Cc1cn2nc(-c3cc(F)c4cc(C5CCNCC5)nnc4c3)cc(C#N)c2n1 [Compound 108, 6-[5-fluoro-3-(piperidin-4-yl)cinnolin-7-yl]-2-methylimidazo[1,2-b]pyridazine-8-carbonitrile]",≥ 7.00
4,"Cn1cc2c(F)c(-c3cc(F)c4cc(C5CCNCC5)nnc4c3)ccc2n1 [Compound 109, 5-fluoro-7-(4-fluoro-2-methyl-2H-indazol-5-yl)-3-(piperidin-4-yl)cinnoline]",6.00 to 6.30
5,"CCN1CCC(c2cnc3cc(-c4cc(C)c5nc(C)cn5n4)cc(F)c3n2)CC1 [Compound 110, 6-(2,8-dimethylimidazo[1,2-b]pyridazin-6-yl)-2-(1-ethylpiperidin-4-yl)-8-fluoroquinoxaline]",≥ 7.00
6,"Cc1cn2nc(-c3cc(F)c4cc(C5CCNCC5)nnc4c3)cc(C3CC3)c2n1 [Compound 112, 7-(8-cyclopropyl-2-methylimidazo[1,2-b]pyridazin-6-yl)-5-fluoro-3-(piperidin-4-yl)cinnoline]",≥ 7.00
7,"Cc1cn2cc(-c3cc(F)c4cc(C5CCNCC5)nnc4c3)nc2c(C)n1 [Compound 116, 7-(6,8-dimethylimidazo[1,2-a]pyrazin-2-yl)-5-fluoro-3-(piperidin-4-yl)cinnoline]",6.30 to 7.00
8,"Cc1cn2cc(-c3cc4c(F)cc(C5=CCNCC5)cc4nn3)cc(F)c2n1 [Compound 117, 5-fluoro-3-(8-fluoro-2-methylimidazo[1,2-a]pyridin-6-yl)-7-(1,2,3,6-tetrahydropyridin-4-yl)cinnoline]",≥ 7.00
9,"Cc1nc2c(C)cc(-c3cc(F)c4cc(C5CCNCC5)nnc4c3)cc2s1 [Compound 118, 7-(2,4-dimethyl-1,3-benzothiazol-6-yl)-5-fluoro-3-(piperidin-4-yl)cinnoline]",6.30 to 7.00
10,"CCN1CCC(c2cc3c(F)cc(-c4cn5cc(C)nc(C)c5n4)cc3nn2)CC1 [Compound 119, 7-(6,8-dimethylimidazo[1,2-a]pyrazin-2-yl)-3-(1-ethylpiperidin-4-yl)-5-fluorocinnoline]",6.00 to 6.30
11,"CCN1CCC(c2cc3c(F)cc(-c4cc(C)c5nc(C)sc5c4)cc3nn2)CC1 [Compound 120, 7-(2,4-dimethyl-1,3-benzothiazol-6-yl)-3-(1-ethylpiperidin-4-yl)-5-fluorocinnoline]",5.52 to 6.00
12,"Cc1nc2c(C)cc(-c3cc(F)c4cc(C5CCNCC5)nnc4c3)nc2[nH]1 [Compound 126, 7-(2,7-dimethyl-3H-imidazo[4,5-b]pyridin-5-yl)-5-fluoro-3-(piperidin-4-yl)cinnoline]",≥ 7.00
13,"Cc1cn2cc(-c3cc4c(F)cc(C5CCNCC5)cc4nn3)cc(F)c2n1 [Compound 128, 5-fluoro-3-(8-fluoro-2-methylimidazo[1,2-a]pyridin-6-yl)-7-(piperidin-4-yl)cinnoline]",≥ 7.00
14,"CCN1CCC(c2cc3c(F)cc(-c4cc(C)c5nc(C)[nH]c5n4)cc3nn2)CC1 [Compound 132, 7-(2,7-dimethyl-3H-imidazo[4,5-b]pyridin-5-yl)-3-(1-ethylpiperidin-4-yl)-5-fluorocinnoline]",≥ 7.00

# The next lines start with the values.
row,pIC50,Structure (SMILES)
1,≥ 7.00,"CCN1CCC(c2cc3c(F)cc(-c4cc(OC)c5nc(C)cn5n4)cc3nn2)CC1 [Compound 111, 3-(1-ethylpiperidin-4-yl)-5-fluoro-7-(8-methoxy-2-methylimidazo[1,2-b]pyridazin-6-yl)cinnoline]"
2,≥ 7.00,"CCN1CCC(c2cc3c(F)cc(-c4cc(CO)c5nc(C)cn5n4)cc3nn2)CC1 [Compound 113, {6-[3-(1-ethylpiperidin-4-yl)-5-fluorocinnolin-7-yl]-2-methylimidazo[1,2-b]pyridazin-8-yl}methanol]"
3,≥ 7.00,"CCN1CCC(c2cc3c(F)cc(-c4cc(C#N)c5nc(C)cn5n4)cc3nn2)CC1 [Compound 114, 6-[3-(1-ethylpiperidin-4-yl)-5-fluorocinnolin-7-yl]-2-methylimidazo[1,2-b]pyridazine-8-carbonitrile]"
4,≥ 7.00,"CCN1CCC(c2cc3c(F)cc(-c4cc(C5CC5)c5nc(C)cn5n4)cc3nn2)CC1 [Compound 115, 7-(8-cyclopropyl-2-methylimidazo[1,2-b]pyridazin-6-yl)-3-(1-ethylpiperidin-4-yl)-5-fluorocinnoline]"
5,≥ 7.00,"CCc1cc(-c2cc(F)c3cc(C4CCN(CC)CC4)nnc3c2)nn2cc(C)nc12 [Compound 121, 7-(8-ethyl-2-methylimidazo[1,2-b]pyridazin-6-yl)-3-(1-ethylpiperidin-4-yl)-5-fluorocinnoline]"
6,≥ 7.00,"CCc1cc(-c2cc(F)c3cc(C4CCN(C)CC4)nnc3c2)nn2cc(C)nc12 [Compound 122, 7-(8-ethyl-2-methylimidazo[1,2-b]pyridazin-6-yl)-5-fluoro-3-(1-methylpiperidin-4-yl)cinnoline]"
7,≥ 7.00,"CCc1cc(-c2cc(F)c3cc(C4CCN(CCO)CC4)nnc3c2)nn2cc(C)nc12 [Compound 123, 2-{4-[7-(8-ethyl-2-methylimidazo[1,2-b]pyridazin-6-yl)-5-fluorocinnolin-3-yl]piperidin-1-yl}ethan-1-ol]"
8,≥ 7.00,"Cc1cn2nc(-c3cc(F)c4cc(C5C[C@@H](C)N(C)[C@H](C)C5)nnc4c3)cc(C)c2n1 (stereo partly drawn) [Compound 124, 7-(2,8-dimethylimidazo[1,2-b]pyridazin-6-yl)-5-fluoro-3-[(25,6S)-1,2,6-trimethylpiperidin-4-yl]cinnoline]"
9,≥ 7.00,"CCN1[C@H](C)CC(c2cc3c(F)cc(-c4cc(C)c5nc(C)cn5n4)cc3nn2)C[C@H]1C (stereo partly drawn) [Compound 125, 7-(2,8-dimethylimidazo[1,2-b]pyridazin-6-yl)-3-[(2R,6R)-1-ethyl-2,6-dimethylpiperidin-4-yl]-5-fluorocinnoline]"
10,≥ 7.00,"Cc1cn2nc(-c3cc(F)c4cc(C5CCN(CCN(C)C)CC5)nnc4c3)cc(C)c2n1 [Compound 127, 2-{4-[7-(2,8-dimethylimidazo[1,2-b]pyridazin-6-yl)-5-fluorocinnolin-3-yl]piperidin-1-yl}-N,N-dimethylethan-1-amine]"
11,≥ 7.00,"Cc1cn2nc(-c3cc(F)c4cc(C5CCCNCC5)nnc4c3)cc(C)c2n1 (stereo not drawn) [Compound 129, 3-(azepan-4-yl)-7-(2,8-dimethylimidazo[1,2-b]pyridazin-6-yl)-5-fluorocinnoline]"
12,≥ 7.00,"CC[C@H]1CC(c2cc3c(F)cc(-c4cc(C)c5nc(C)cn5n4)cc3nn2)C[C@H](CC)N1 (stereo partly drawn) [Compound 130, 3-[(2S,6S)-2,6-diethylpiperidin-4-yl]-7-(2,8-dimethylimidazo[1,2-b]pyridazin-6-yl)-5-fluorocinnoline]"
13,≥ 7.00,"CC[C@H]1CC(c2cc3c(F)cc(-c4cc(C)c5nc(C)cn5n4)cc3nn2)C[C@H](CC)N1C (stereo partly drawn) [Compound 131, 3-[(2S,6S)-2,6-diethyl-1-methylpiperidin-4-yl]-7-(2,8-dimethylimidazo[1,2-b]pyridazin-6-yl)-5-fluorocinnoline]"
